Data as given in patent US8992932B2, “Binder-drug conjugates (ADCs) and use thereof” (Seattle Genetics, Inc., priority 2011, dated 2015).

Legend:
Caco-2 cells = assay: Cell permeability flux assay using Caco-2 cells; format: in vitro ADME; settings: basal to apical, 2 hours
Method: The cell permeability of a substance can be investigated by means of in vitro testing in a flux assay using Caco-2 cells [M. D. Troutman and D R Thakker, Pharm. Res. 20 (8), 1210-1224 (2003)]. For this purpose, the cells were cultured for 15-16 days on 24-well filter plates. For the determination of permeation, the respective working example was applied in a HEPES buffer to the cells either apically (A) or basally (B) and incubated for 2 hours. After 0 hours and after 2 hours, samples were taken from the cis and trans compartments. The samples were separated by HPLC (Agilent 1200, Boblingen, Germany) using reverse phase columns. The HPLC system was coupled via a Turbo Ion Spray Interface to a Triple Quadropol mass spectrometer API 4000 (Applied Biosystems Applera, Darmstadt, Germany). The permeability was evaluated on the basis of a Papp value, which was calculated using the formula published by Schwab et al. [D. Schwab et al., J. Med. Chem. 46, 1716-1725 (2003)].

tubulin = assay: Fluorescence-based microtubule polymerisation assay (DAPI); format: biochemical
Method: Tubulin polymerization was investigated using the “Fluorescence-based Microtubule Polymerisation Assay Kit” from Cytoskeleton (Denver, Colo., USA; order number: BK011). With this assay, GTP is added to unpolymerized tubulin, allowing polymerization to take place spontaneously. The assay is based on the binding of the fluorophore 4′,6-diamidino-2-phenylindole (DAPI) to tubulin. Free and bound DAPI can be differentiated on the basis of different emission spectra.
[…] In addition to the buffer control, paclitaxel, with a polymerization-increasing effect, and vinblastin, with a polymerization inhibiting effect, were run additionally as assay controls. Measurement was carried out using 96-well plates with a half base area. The kinetics of the tubulin polymerization were monitored in a Fluorimeter at 37° C. for 1 hour. The excitation wavelength was 355 nm, and emission was monitored at 460 nm. For the region of linear increase within the first 10 minutes, a calculation was made of the change in fluorescence per minute (AF/min), which represents the polymerization rate of the microtubuli. The potency of the test substances was quantified on the basis of their respective reduction of the polymerization rate.

P-glycoprotein (P-gp) = target: T1, P-glycoprotein (P-gp) (Homo sapiens, UniProt P08183); assay: P-gp substrate flux assay in L-MDR1 cells; format: in vitro ADME; settings: L-MDR1 cells (P-gp overexpressing LLC-PK1); basal to apical; 2 hours
T1 construct: expressed in transfected cells; host or cells: LLC-PK1 (pig kidney) cells transfected with human MDR1 (L-MDR1 cells)
T1 sequence (P08183 whole entry): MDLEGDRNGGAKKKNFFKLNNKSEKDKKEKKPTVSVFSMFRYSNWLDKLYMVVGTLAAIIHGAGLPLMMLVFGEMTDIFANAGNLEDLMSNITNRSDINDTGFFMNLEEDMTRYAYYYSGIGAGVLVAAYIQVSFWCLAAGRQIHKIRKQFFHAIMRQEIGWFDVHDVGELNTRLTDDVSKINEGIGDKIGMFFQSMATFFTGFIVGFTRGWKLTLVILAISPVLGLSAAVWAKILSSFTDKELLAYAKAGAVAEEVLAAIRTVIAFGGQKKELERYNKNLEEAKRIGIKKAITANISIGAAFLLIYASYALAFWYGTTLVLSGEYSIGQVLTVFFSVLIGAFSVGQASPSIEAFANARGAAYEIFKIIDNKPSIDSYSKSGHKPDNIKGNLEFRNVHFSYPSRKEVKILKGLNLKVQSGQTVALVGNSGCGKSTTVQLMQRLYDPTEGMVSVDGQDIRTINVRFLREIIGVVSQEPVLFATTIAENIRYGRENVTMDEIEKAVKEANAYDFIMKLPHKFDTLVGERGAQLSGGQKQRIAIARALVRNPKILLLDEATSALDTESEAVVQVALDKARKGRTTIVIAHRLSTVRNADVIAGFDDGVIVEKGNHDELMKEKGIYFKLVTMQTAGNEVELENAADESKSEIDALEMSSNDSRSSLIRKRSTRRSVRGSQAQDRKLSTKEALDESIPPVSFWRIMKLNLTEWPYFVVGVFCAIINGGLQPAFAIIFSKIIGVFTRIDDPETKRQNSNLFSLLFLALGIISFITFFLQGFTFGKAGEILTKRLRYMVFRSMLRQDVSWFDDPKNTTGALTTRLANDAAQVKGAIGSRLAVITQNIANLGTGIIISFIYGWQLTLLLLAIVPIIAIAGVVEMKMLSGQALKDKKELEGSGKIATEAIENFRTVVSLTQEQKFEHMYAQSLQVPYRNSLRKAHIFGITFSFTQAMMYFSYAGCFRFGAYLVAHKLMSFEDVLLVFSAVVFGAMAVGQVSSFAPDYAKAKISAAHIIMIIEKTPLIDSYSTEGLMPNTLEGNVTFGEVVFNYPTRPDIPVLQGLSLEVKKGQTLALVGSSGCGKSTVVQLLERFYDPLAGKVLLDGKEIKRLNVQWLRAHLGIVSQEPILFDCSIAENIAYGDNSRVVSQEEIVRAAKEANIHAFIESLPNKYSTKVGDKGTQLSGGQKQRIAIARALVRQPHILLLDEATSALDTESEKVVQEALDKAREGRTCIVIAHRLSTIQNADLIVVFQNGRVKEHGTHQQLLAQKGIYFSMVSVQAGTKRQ
Method: The substrate properties of a substance for P-gp (ABCB1) were determined by means of a flux assay using LLC-PK1 cells which overexpress P-gp (L-MDR1 cells) [A. H. Schinkel et al., J. Clin. Invest. 96, 1698-1705 (1995)]. For this purpose, the LLC-PK1 cells or L-MDR1 cells were cultured on 96-well filter plates for 3-4 days. For determination of the permeation, the respective test substance, alone or in the presence of an inhibitor (such as Ivermectin or Verapamil, for example), was applied in a HEPES buffer to the cells either apically (A) or basally (B) and incubated for 2 hours. After 0 hours and after 2 hours, samples were taken from the cis and trans compartments. The samples were separated by HPLC using reverse phase columns. The HPLC system was coupled via a Turbo Ion Spray Interface to a Triple Quadropol mass spectrometer API 3000 (Applied Biosystems Applera, Darmstadt, Germany). The permeability was evaluated on the basis of a Papp value which was calculated using the formula published by Schwab et al. [D. Schwab et al., J. Med. Chem. 46, 1716-1725 (2003)].

## N-[6-(3-{[(2R)-2-Amino-2-carboxyethyl]sulphanyl}-2,5-dioxopyrrolidin-1-yl)hexyl]-N-methyl-L-valyl-N-[(3R,4S,5S)-1-{(2S)-2-[(1R,2R)-3-{R1S)-1-carboxy-2-(1H-indol-3-yl)ethyl]amino}-1-methoxy-2-methyl-3-oxopropyl]pyrrolidin-1-yl}-3-methoxy-5-methyl-1-oxoheptan-4-yl]-N-methyl-L-valinamide [Example 75]
Caco-2 cells
  Papp (B-A): 0.1 ×10⁻⁶ cm/s
tubulin; toxophore 1 μM
  Tubulin polymerization in the presence of toxophore in [%]. Tubulin polymerization rate at 1 μM MMAF set at 100%: 107%
tubulin; toxophore 10 μM
  Tubulin polymerization in the presence of toxophore in [%]. Tubulin polymerization rate at 1 μM MMAF set at 100%: 25%
P-glycoprotein (P-gp)
  Papp (B-A): 0.4 ×10⁻⁶ cm/s
